What is called EC50 is the concentration that produces a half-maximal response. The low end stands for higher potency in that assay, the high end for lower potency in that assay.

One data set has as its system HIV-1. Briefly: Anti-HIV-1 activity in TZM-GFP cells (viral LTR-activated GFP expression). It is filed as cell-based. The settings on record: Human immunodeficiency virus 1, HIV-1 strain MOI=1, GFP positive cells counted after 48 hours. The method, boiled down:
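TZM-GFP cells treated with increasing compound for 24 h, then infected with HIV-1 (MOI=1); EC50 based on inhibition of LTR-driven GFP expression versus DMSO controls. CC50 determined by XTT after 72 h continuous exposure in the same cells; duplicate, ≥2 independent experiments, variable-slope curve fit.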

The test system of the next data set is TZM-GFP cells. In words: Cytotoxicity in TZM-GFP cells (XTT). The format is cell-based. The settings on record: 50 μM compound. The essentials:
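TZM-GFP cells (1×10^4 per well) exposed continuously to increasing compound concentrations for 72 hours. Viable cells measured by XTT; CC50 from log(inhibitor) vs. normalized response-variable slope fit, averaged over at least two independent duplicate experiments.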
On the technique in general: Formazan colour is commonly taken as a measure of viable cells.

The target in data set [1] is covalently-crosslinked hexameric CA A14C/E45C/W184A/M185A (CA121) (Human immunodeficiency virus type 1 group M subtype B, UniProt P12493, A146C/E177C/M317A/W316A). Briefly: Thermal shift assay (TSA), CA hexamer stability. The format is binding, HIV-1. The settings on record: compound 20 μM, ΔTm=Tm−T0 vs DMSO.
The nature of data set [2]: Microsomal stability assay, human liver microsomes. It is filed as in vitro ADME. The following applies: human liver microsomes, 1 μM compound, NADPH. The method, then: (§1) The in vitro microsomal stability assay was conducted in duplicate in mouse and human liver microsomal systems, which were supplemented with nicotinamide adenine dinucleotide phosphate (NADPH) as a cofactor. […] The reaction was initiated by addition of 1 mM NADPH, followed by incubation at 37° C. A negative control was performed in parallel in the absence of NADPH to measure any chemical instability or non-NADPH dependent enzymatic degradation for each compound. At various time points (0, 5, 15, 30, and 60 minutes), 1 volume of reaction aliquot was taken and quenched with 3 volumes of acetonitrile containing an appropriate internal standard and 0.1% formic acid. The samples were then vortexed and centrifuged at 15,000 rpm for 5 minutes at 4° C. The supernatants were collected and analyzed by LC-MS/MS to determine the in vitro metabolic half-life (t1/2).

A short description of data set [3]: Microsomal stability assay, mouse liver microsomes. The following applies: NADPH. The format is in vitro ADME. The method, then: as §1
On the technique in general: Microsomes from liver hold many membrane-bound enzymes, among them those of drug oxidation.

The mark [4] stands for this setting: 1 μM compound, with 0.5 μM Cobicistat (CYP3A inhibitor).
Setting [5] is: 1 μM compound, without Cobicistat.
Where [6] appears, read: pH 7.4, without Cobicistat, read-out: HLM half-life (t1/2).
The mark [7] stands for this setting: pH 7.4, 1 μM compound, without Cobicistat, read-out: MLM half-life (t1/2).
The mark [8] stands for this setting: pH 7.4, with Cobicistat 0.5 μM (CYP3A inhibitor), with 0.5 μM Cobicistat (CYP3A inhibitor), read-out: HLM (+Cobi) half-life (t1/2).
Setting [9] is: pH 7.4, with Cobicistat 0.5 μM (CYP3A inhibitor), 1 μM compound, with 0.5 μM Cobicistat (CYP3A inhibitor), read-out: MLM (+Cobi) half-life (t1/2).

Structures are written as SMILES.

In the data set on HIV-1, `Cc1[nH]c2ccccc2c1CC(=O)N[C@@H](Cc1ccccc1)c1nccn1-c1ccccc1` [Example 52, (S)-2-(2-methyl-1H-indol-3-yl)-N-(2-phenyl-1-(1-phenyl-1H-imidazol-2-yl)ethyl)acetamide] gave a 50% effective concentration (EC50) of 3.7 ± 0.8 µM. Besides, the “% viability at 50 μM” value with TZM-GFP cells was 78 ± 6%. Further, the “TSA ΔTm (° C.)” value in data set [1] came out at 3.9 °C.

`O=C(Cn1ncc2ccccc21)N[C@@H](Cc1ccccc1)c1ncccc1-c1ccccc1` [Example 50, (S)-2-(1H-indazol-1-yl)-N-(2-phenyl-1-(3-phenylpyridin-2-yl)ethyl)acetamide] displayed a concentration giving a half-maximal response (EC50) in the data set on HIV-1 of 8.8 ± 0.4 µM. In addition, in the data set with TZM-GFP cells, the “% viability at 50 μM” value is recorded as 46 ± 13%. Moreover, the “TSA ΔTm (° C.)” value in data set [1] worked out at 1.0 °C.

With `Cc1ccc(N(C)C(=O)[C@H](Cc2ccccc2)NC(=O)CNC(=O)c2ccccc2)cc1` [drawing 191], the “HLM (+Cobi) half-life (t1/2)” value in data set [2] (with 0.5 μM Cobicistat (CYP3A inhibitor)) was determined as 42 min. Moreover, the “HLM half-life (t1/2)” value in data set [2] (without Cobicistat) came out at 22 min. In addition, the “MLM (+Cobi) half-life (t1/2)” value in data set [3] (setting [4]) amounted to 34 min. Moreover, the “MLM half-life (t1/2)” value in data set [3] (setting [5]) amounted to 5.0 min.

Regarding `CN(C(=O)[C@H](Cc1ccccc1)NC(=O)CN1C(=O)NC2(CCCCC2)C1=O)c1ccc(F)cc1` [drawing 188], the half-life at 1 μM in data set [2] (setting [6]) worked out at 1.1 min; in data set [3] (setting [7]), 0.5 min.

In the case of `O=C(Cn1cccn1)N[C@@H](Cc1ccccc1)c1ncccc1-c1ccccc1` [Example 51, (S)—N-(2-phenyl-1-(3-phenylpyridin-2-yl)ethyl)-2-(1H-pyrazol-1-yl)acetamide], in the data set with HIV-1, the EC50 worked out at 5.1 ± 0.7 µM. Moreover, in the data set with TZM-GFP cells, the “% viability at 50 μM” value amounted to 102 ± 6%. For the same compound, the “TSA ΔTm (° C.)” value in data set [1] stood at 1.1 °C.

With `Cc1ccc(C)c2c1NC(=O)C2CC(=O)N[C@@H](Cc1ccccc1)C(=O)N(C)c1ccccc1` (some centres unmarked) [drawing 179], the half-life at 1 μM in data set [2] (setting [6]) worked out at 1.5 min; in data set [3] (setting [7]), 0.6 min.

Take `CN(C(=O)[C@H](Cc1ccccc1)NC(=O)CNC(=O)c1ccccc1)c1ccc(Cl)cc1` [drawing 192]: the “HLM half-life (t1/2)” value in data set [2] (without Cobicistat) turned out to be 36 min. The half-life at 1 μM in data set [2] (setting [8]) was 141 min. Besides, the “MLM (+Cobi) half-life (t1/2)” value in data set [3] (setting [4]) is reported as 52 min. Besides, in data set [3] (setting [5]), the “MLM half-life (t1/2)” value worked out at 13 min.

In turn, `Cc1[nH]c2ccccc2c1CC(=O)N[C@@H](Cc1ccccc1)c1ncccc1-c1ccccc1` [Example 49, (S)-2-(2-methyl-1H-indol-3-yl)-N-(2-phenyl-1-(3-phenylpyridin-2-yl)ethyl)acetamide] showed an EC50 with HIV-1 of 2.6 ± 0.4 µM. In the data set on TZM-GFP cells, the “% viability at 50 μM” value was 29 ± 12%. Further, the “TSA ΔTm (° C.)” value in data set [1] is 4.5 °C.

As for `Cc1[nH]c2ccccc2c1CC(=O)N[C@@H](Cc1ccccc1)c1nccn1-c1ccc(C#N)cc1` [Example 53, (S)—N-(1-(1-(4-cyanophenyl)-1H-imidazol-2-yl)-2-phenylethyl)-2-(2-methyl-1H-indol-3-yl)acetamide], the 50% effective concentration (EC50) in the data set with HIV-1 worked out at 6.6 ± 0.4 µM. Moreover, the “% viability at 50 μM” value in the data set with TZM-GFP cells is on record as 87 ± 8%. Further, the “TSA ΔTm (° C.)” value in data set [1] was determined as 2.2 °C.

For `CN(C(=O)[C@H](Cc1ccccc1)NC(=O)CN1C(=O)NC2(CCCCC2)C1=O)c1ccc(Cl)cc1` [drawing 189], the half-life at 1 μM in data set [2] (setting [6]) is 3.1 min; in data set [3] (setting [7]) it was 0.9 min.

As for `Cc1cn(CC(=O)N[C@@H](Cc2ccccc2)C(=O)N(C)c2ccc(Cl)cc2)c(=O)[nH]c1=O` [drawing 195], the “HLM half-life (t1/2)” value in data set [2] (without Cobicistat) is 12 min. The half-life at 1 μM in data set [2] (setting [8]) was 1390 min; in data set [3] (setting [9]), 385 min. The “MLM half-life (t1/2)” value in data set [3] (setting [5]) amounted to 4.6 min.

On to `COc1ccc(N(C)C(=O)[C@H](Cc2ccccc2)NC(=O)CN2C(=O)NC3(CCCCC3)C2=O)cc1` [drawing 186], for which the half-life at 1 μM in data set [2] (setting [6]) is 5.2 min; in data set [3] (setting [7]), 0.7 min.

In the case of `Cc1cccc2c1NC(=O)C2CC(=O)N[C@@H](Cc1ccccc1)C(=O)N(C)c1cccc(F)c1` (some centres unmarked) [drawing 178], the half-life at 1 μM in data set [2] (setting [8]) is 433 min; in data set [2] (setting [6]), 2.5 min; in data set [3] (setting [7]), 1.1 min; in data set [3] (setting [9]), 20 min.

Turning to `CN(C(=O)[C@H](Cc1ccccc1)NC(=O)Cc1ccc2ccccc2c1)c1ccccc1` [drawing 181], the half-life at 1 μM in data set [2] (setting [6]) came to 1.8 min; in data set [3] (setting [7]), 0.5 min.

Turning to `CN(C(=O)[C@H](Cc1ccccc1)NC(=O)Cc1ccc2ccccc2c1)c1ccc(Cl)cc1` [drawing 182], the half-life at 1 μM in data set [2] (setting [8]) came to 239 min; in data set [2] (setting [6]) it was 2.7 min; in data set [3] (setting [7]), 1.4 min; in data set [3] (setting [9]) it was 18 min.

Consider `Cc1ccc(N(C)C(=O)[C@H](Cc2ccccc2)NC(=O)CN2C(=O)NC3(CCCCC3)C2=O)cc1` [drawing 187], for which the half-life at 1 μM was found to be 3.3 min in data set [2] (setting [6]) and 1.2 min in data set [3] (setting [7]).

(Values after patent US11850247B2, “Antiviral compounds” (REGENTS OF THE UNIVERSITY OF MINNESOTA, priority 2020, dated 2023).)
